The text below walks through data of ChEMBL document CHEMBL1130658 (Bioorg Med Chem Lett, 1998).

Data set [1] concerns the target MAP kinase p38 (Homo sapiens, UniProt O15264+Q15759+Q16539+P53778). Description: Compound was tested for inhibition of p38 MAP kinase. It is filed as protein assay.
In data set [2] the target is CYP2D6 (Homo sapiens, UniProt P10635). Description: Percent inhibition of human hepatic cytochrome P450 2D6 at 10 uM. Format: ADME.
For data set [3], the species on record is Mus musculus. The data set can be described thus: Effective dose required to determine the oral activity in the mouse LPS-induced TNF alpha assay. It is filed as functional.
Data set [4] deals with Mus musculus. The data set can be described thus: Effective dose required to determine the oral activity in the mouse LPS-induced TNF alpha assay at a dose of 50 mg/kg. Format: functional.
Data set [5] relates to Mus musculus. The data set can be described thus: Effective dose required to determine the oral activity in the mouse LPS-induced TNF alpha assay at a dose of 50 mg/Kg. It is filed as functional.

Sequence of CYP2D6 (P10635 whole entry): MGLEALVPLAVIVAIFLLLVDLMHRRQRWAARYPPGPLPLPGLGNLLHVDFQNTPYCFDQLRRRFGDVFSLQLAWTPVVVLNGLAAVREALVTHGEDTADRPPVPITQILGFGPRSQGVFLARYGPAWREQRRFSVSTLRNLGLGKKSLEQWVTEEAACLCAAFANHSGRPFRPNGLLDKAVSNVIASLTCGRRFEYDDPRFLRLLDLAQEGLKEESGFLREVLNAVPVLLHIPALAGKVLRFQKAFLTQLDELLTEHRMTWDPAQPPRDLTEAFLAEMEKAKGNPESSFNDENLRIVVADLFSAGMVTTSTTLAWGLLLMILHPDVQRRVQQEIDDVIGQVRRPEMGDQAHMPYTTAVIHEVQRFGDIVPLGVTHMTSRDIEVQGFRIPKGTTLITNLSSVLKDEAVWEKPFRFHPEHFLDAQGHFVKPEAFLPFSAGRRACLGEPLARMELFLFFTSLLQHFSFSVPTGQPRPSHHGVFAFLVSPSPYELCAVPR

As for `CSc1nc(N)cc(-c2c(-c3ccc(F)cc3)ncn2CCCN2CCOCC2)n1`, in data set [1], the IC50 was over 17 µM.

`CNc1nccc(-c2c(-c3ccc(F)cc3)ncn2CCCN2CCOCC2)n1` returned an IC50 in data set [1] of 1.9 µM. In data set [2], this compound displayed an inhibition at 10 µM of 11%. This compound gave a 50% effective dose (ED50) in data set [3] of 19 mg/kg.

In the case of `C[S+]([O-])c1nccc(-c2c(-c3ccc(F)cc3)ncn2CCCN2CCOCC2)n1` (stereo not drawn), in data set [4], the inhibition in vivo at 50 mg/kg was 37%. The IC50 in data set [1] is 2.2 µM.

For `COc1cc(-c2c(-c3ccc(F)cc3)ncn2CCCN2CCOCC2)ncn1`, the 50% inhibitory concentration (IC50) in data set [1] is over 17 µM.

As for `CSc1nccc(-c2c(-c3ccc(F)cc3)ncn2CCCN2CCOCC2)n1`, the concentration for half-maximal inhibition (IC50) in data set [1] amounted to 2 µM. In data set [2], 10 µM produced 47% inhibition. For the same compound, in data set [3], the 50% effective dose (ED50) is 43 mg/kg.

`Cc1cc(-c2c(-c3ccc(F)cc3)ncn2CCCN2CCOCC2)cc(C)n1` yielded an IC50 in data set [1] of over 17 µM.

With `COc1nccc(-c2c(-c3ccc(F)cc3)ncn2CCCN2CCOCC2)n1`, in data set [2], 10 µM produced 7% inhibition. Also, it took a dose of 14 mg/kg to reach the 50% effect level in data set [3] (ED50).

`Nc1nccc(-c2c(-c3ccc(F)cc3)ncn2CCCN2CCOCC2)n1` displayed an inhibition at 10 µM in data set [2] of 47%.

`Fc1ccc(-c2ncn(CCCN3CCOCC3)c2-c2ccncn2)cc1` registered an inhibition at 10 µM in data set [2] of 34%. In data set [3], this compound showed a median effective dose (ED50) of 12 mg/kg.

Consider `Cc1nccc(-c2c(-c3ccc(F)cc3)ncn2CCCN2CCOCC2)n1`, for which the 50% inhibitory concentration (IC50) in data set [1] was 1.3 µM. Further, the inhibition at 10 µM in data set [2] stood at 19%. This compound came in with an inhibition in vivo at 50 mg/kg in data set [5] of 65%.

`Cc1cc(-c2c(-c3ccc(F)cc3)ncn2CCCN2CCOCC2)nc(N)n1`: in data set [1], the IC50 was over 17 µM.

With `CN(C)c1nccc(-c2c(-c3ccc(F)cc3)ncn2CCCN2CCOCC2)n1`, the IC50 in data set [1] was 3.6 µM.

As for `Cc1cc(-c2c(-c3ccc(F)cc3)ncn2CCCN2CCOCC2)ccn1`, the inhibition in vivo at 50 mg/kg in data set [4] turned out to be 37%. The half-maximal inhibitory concentration (IC50) in data set [1] stood at 2.1 µM. This compound returned an inhibition at 10 µM in data set [2] of 51%.

`CC(=O)Nc1cc(-c2c(-c3ccc(F)cc3)ncn2CCCN2CCOCC2)ncn1` yielded an inhibition in vivo at 50 mg/kg in data set [4] of 21%. The compound further yielded an IC50 in data set [1] of 3.5 µM.

With `CC(=O)Nc1nccc(-c2c(-c3ccc(F)cc3)ncn2CCCN2CCOCC2)n1`, at 50 mg/kg the inhibition in vivo in data set [4] was 12%. Moreover, in data set [1], the IC50 came out at 0.46 µM.

For the compound `Nc1cc(-c2c(-c3ccc(F)cc3)ncn2CCCN2CCOCC2)ncn1`, the half-maximal inhibitory concentration (IC50) in data set [1] is over 17 µM.

`Oc1nccc(-c2c(-c3ccc(F)cc3)ncn2CCCN2CCOCC2)n1` showed an inhibition in vivo at 50 mg/kg in data set [4] of 33%. Also, the half-inhibitory concentration (IC50) in data set [1] is 5.5 µM.

`Fc1ccc(-c2ncn(CCCN3CCOCC3)c2-c2ccncc2)cc1` [SB-210313]: the inhibition at 10 µM in data set [2] came out at 86%. This compound displayed an ED50 in data set [3] of 42 mg/kg.
